In publication doi:10.1101/2023.02.27.530254, “Large library docking for cannabinoid-1 receptor agonists with reduced side effects” (bioRxiv, 2024):
Several values for one entry are separate records, joined by “and”; a condition that tells them apart may be missing. Equal entries are not always repeated.

Assays:
C56BL/6 mice [1] = assay: Acetone test of cold allodynia after SNI; assay type: in vivo, mouse; conditions: for effect on SNI-induced cold allodynia (number of paw withdrawals): acetone test
Experimental: Under isoflurane anesthesia, two of the three branches of the sciatic nerve were ligated and transected distally, leaving the sural nerve intact. Behavior was tested 7 to 14 days after injury.
Mice were placed on a wire mesh and thirty min after an i.p. injection of the compounds we applied a drop (50 μL) of acetone on the ventral aspect of the hindpaw, 5 times every 30 sec. We recorded the number of nocifensive behaviors (paw lifts/licks/shakes/bites) over the 5 applications.

C56BL/6 mice [2] = assay: Catalepsy test (vertical wire mesh); assay type: in vivo, mouse; conditions: for cataleptic behavior: analgesic doses (0.2 or 0.5 mg/kg), 30 minutes or 1-hour post-injection; for concentration window between anti-allodynia or analgesia versus catalepsy and sedation, maximum: depending on the nociceptive behavior
Experimental: Thirty and 60 minutes after an i.p. injection of the compounds, mice were placed on a vertical wire mesh and the latency to move all four paws was recorded.

C56BL/6 mice [3] = assay: Body temperature by telemetric probe; assay type: in vivo, mouse; conditions: body temperature over 150 minutes
Experimental: Body temperature (BT) was measured using a telemetric probe device (HD-X10; Data Science International). Briefly, under anesthesia, the probe device was placed in the mouse abdomen and a subcutaneous tunnel was created from the neck to the abdominal skin, through which a catheter (connected to the probe) was pulled and then inserted into the left carotid artery. Three weeks later, the implanted mice were singly housed in a cage that was placed on top of the DSI receiver (for probe signal detection). […] Data were acquired using the Ponemah Telemetry acquisition software (DSI) and percent changes were presented relative to each mouse’s baseline.

hCB1 = hCB1 (Homo sapiens, UniProt P21554); assay: Lance Ultra cAMP accumulation assay (inhibition of forskolin-stimulated cAMP), CHO cells; assay type: cell-based; parameters: expressed in transfected cells; conditions: for Emax: CHO, read-out: hCB1 Lance Ultra cAMP Emax [95% CI]
Experimental: The inhibition of forskolin-stimulated cAMP accumulation assays was carried out using PerkinElmer’s Lance Ultra cAMP kit following the manufacturer’s protocol. In brief, CHO cells stably expressing human CB1R were harvested by incubation with Versene (ThermoFisher Scientific, Waltham, MA) for 10 min, washed once with Hank’s Balanced Salt Solution, and resuspended in stimulation buffer at ~200 cells/μL density. The ligands at eight different concentrations (0.001–10,000 nM) in stimulation buffer (5 μL) containing forskolin (2 μM final concentration) were added to a 384-well plate followed by the cell suspension (5 μL; ~1000 cells/well). The plate was incubated for 30 min at room temperature. Eu-cAMP tracer (5 μL) and Ulight-anti-cAMP (5 μL) working solutions were then added to each well, and the plate was incubated at room temperature for an additional 60 min. Results were measured on a Perkin-Elmer EnVision plate reader. The EC50 values were determined by nonlinear regression analysis using Prism software (GraphPad Software, Inc., San Diego, CA) and are expressed as the mean of three experiments, each performed in triplicate.

hCB2 [4] = biological target: T1, hCB2 (Homo sapiens, UniProt P34972); assay: Tango β-arrestin-2 recruitment assay, HTLA cells; assay type: cell-based; parameters: expressed in transfected cells; host or cells: HTLA (transient); conditions: for Emax: HTLA, read-out: hCB2 Tango ß-arrestin recruitment Emax [95% CI]
Experimental: The Tango β-arrestin-2 recruitment assays were performed as described. In brief, HTLA cells were transiently transfected with human CB1R or CB2R Tango DNA construct overnight in DMEM supplemented with 10 % FBS, 100 μg ml−1 streptomycin and 100 U ml−1 penicillin. The transfected cells were then plated into poly-L-lysine-coated 384-well white clear-bottom cell culture plates in DMEM containing 1% dialysed FBS at a density of 10,000–15,000 cells per well. After incubation for 6 h, the plates were added with drug solutions prepared in DMEM containing 1% dialysed FBS for overnight incubation. On the day of assay, medium and drug solutions were removed and 20 μl per well of BrightGlo reagent (Promega) was added. The plates were further incubated for 20 min at room temperature and counted using the Wallac TriLux Microbeta counter (PerkinElmer). The results were analysed using GraphPad Prism 9.1. Each experiment was performed in triplicate and functional […] values were determined from the mean of three independent experiments.

hCB2 [5] = biological target: T1, hCB2; assay: TRUPATH BRET2 GoA dissociation assay, HEK293T; assay type: cell-based; parameters: expressed in transfected cells; host or cells: HEK293T (transient); conditions: HEK-293T, read-out: hCB2 BRET2 + GoA Emax [95% CI]
Experimental: […]. GoA dissociation BRET2 assays were performed as previously described with minor modifications. In brief, HEK293T cells were co-transfected overnight with human CB2 receptor, GαoA-Rluc, Gβ3, and Gγ9-GFP2 constructs. After 18–24 hours, the transfected cells were seeded into poly-L-lysine-coated 384-well white clear-bottom cell culture plates at a density of 15,000–20,000 cells and incubated with DMEM containing 1% dialyzed FBS, 100 U mL−1 of penicillin and 100 μg ml−1 of streptomycin for another 24 hours. The next day, the medium was aspirated and washed once with 20 μL of assay buffer (1× HBSS, 20 mM HEPES, 0.1% BSA, pH 7.4). Then, 20 μL of drug buffer containing coelenterazine 400a (Nanolight Technology) at 5 μM final concentration was added to each well and incubated for 5 minutes, followed by the addition of 10 μL of 3X designated drug buffer for 5 minutes. Then, 10 μL of 4X final concentrations of ligands were added for 5 minutes. […] BRET ratio was computed as the ratio of the GFP2 emission to RLuc8 emission. […] Each experiment was performed in triplicate and functional IC50 values were determined from the mean of four independent experiments.

Sequence of hCB1 (P21554 whole entry): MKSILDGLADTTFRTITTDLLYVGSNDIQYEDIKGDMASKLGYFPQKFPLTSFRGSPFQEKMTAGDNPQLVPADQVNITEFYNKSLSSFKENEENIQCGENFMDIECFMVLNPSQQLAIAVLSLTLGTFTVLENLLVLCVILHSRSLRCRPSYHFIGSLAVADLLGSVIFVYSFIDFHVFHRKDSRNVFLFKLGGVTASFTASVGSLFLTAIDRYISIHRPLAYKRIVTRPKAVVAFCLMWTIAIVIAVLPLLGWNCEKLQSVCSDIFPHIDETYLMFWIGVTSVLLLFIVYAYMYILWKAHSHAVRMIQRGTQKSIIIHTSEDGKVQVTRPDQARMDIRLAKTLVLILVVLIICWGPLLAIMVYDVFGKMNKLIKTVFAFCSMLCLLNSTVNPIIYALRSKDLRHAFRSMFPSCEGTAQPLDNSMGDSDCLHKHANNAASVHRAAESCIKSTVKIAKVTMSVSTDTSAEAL
T1 sequence (P34972 whole entry): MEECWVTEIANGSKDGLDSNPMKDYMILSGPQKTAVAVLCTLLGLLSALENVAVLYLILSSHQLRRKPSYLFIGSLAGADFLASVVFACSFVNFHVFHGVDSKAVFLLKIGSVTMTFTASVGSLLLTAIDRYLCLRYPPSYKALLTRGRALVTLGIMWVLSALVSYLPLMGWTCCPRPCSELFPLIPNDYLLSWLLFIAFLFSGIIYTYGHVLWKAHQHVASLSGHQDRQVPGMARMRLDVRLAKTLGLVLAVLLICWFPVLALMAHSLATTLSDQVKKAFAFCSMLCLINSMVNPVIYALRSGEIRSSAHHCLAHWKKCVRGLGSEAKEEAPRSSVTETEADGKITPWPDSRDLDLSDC

CCCCCCC(C)(C)c1ccc([C@@H]2C[C@H](O)CC[C@H]2CCCO)c(O)c1 [CP-55,940, reference compound]
effect on SNI-induced cold allodynia (number of paw withdrawals) (C56BL/6 mice [1]): strongly reduced
dose at which catalepsy was recorded (C56BL/6 mice [2]; C56BL/6, mouse, in vivo, intraperitoneal): 0.2 mg/kg
window between analgesia and catalepsy (C56BL/6 mice [2]; mouse, in vivo): no window
hypothermia compared to baseline and vehicle (C56BL/6 mice [3]): induced hypothermia
Emax (hCB1): 85%
Emax (hCB2 [4]): 100%
Emax (hCB2 [5]): 99%

COC(=O)C(C)(NC(=O)c1cc(C)n(-c2cccc(C(F)(F)F)c2)n1)c1cccs1 (centres unmarked) [‘4042]
effect on SNI-induced cold allodynia (number of paw withdrawals) (C56BL/6 mice [1]): strongly reduced
cataleptic behavior (C56BL/6 mice [2]): did not induce cataleptic behavior
concentration window between anti-allodynia or analgesia versus catalepsy and sedation, maximum (C56BL/6 mice [2]): up to a twenty-fold
concentration window between anti-allodynia or analgesia versus catalepsy and sedation, typical (C56BL/6 mice [2]; mouse, in vivo): five- to ten-fold
dose at which catalepsy was recorded (C56BL/6 mice [2]; mouse, in vivo): > 1.0 mg/kg
window between analgesia and both sedation and catalepsy (C56BL/6 mice [2]; typical): 5–10 fold
hypothermia compared to baseline and vehicle (C56BL/6 mice [3]): induced hypothermia
EC50 (hCB1): 3.3 nM
Emax (hCB1): 78%
EC50 (hCB2 [4]): 33.9 nM
Emax (hCB2 [4]): 28%
Emax (hCB2 [5]): 29%

COC(=O)[C@@](C)(NC(=O)c1cc(C)n(-c2cccc(C(F)(F)F)c2)n1)c1cccs1 [‘1350]
effect on SNI-induced cold allodynia (number of paw withdrawals) (C56BL/6 mice [1]): strongly reduced
dose with significant anti-allodynia (C56BL/6 mice [1]; acetone test for cold pain): 0.05 mg/kg
cataleptic behavior (C56BL/6 mice [2]): did not induce cataleptic behavior
concentration window between anti-allodynia or analgesia versus catalepsy and sedation, maximum (C56BL/6 mice [2]): up to a twenty-fold
concentration window between anti-allodynia or analgesia versus catalepsy and sedation, typical (C56BL/6 mice [2]; mouse, in vivo): five- to ten-fold
dose at which catalepsy was recorded (C56BL/6 mice [2]; mouse, in vivo): > 1.0 mg/kg and 1 mg/kg
window between anti-allodynia and catalepsy (C56BL/6 mice [2]; tail-flick and hot-plate, 0.1 mg/kg vs 1 mg/kg highest tested dose): at least a ten-fold
hypothermia compared to baseline and vehicle (C56BL/6 mice [3]): induced hypothermia
EC50 (hCB1): 1.6 nM
hCB1 Lance Ultra cAMP Emax [95% CI] (hCB1): 78%
Emax (hCB1): 77%

COC(=O)C(NC(=O)c1cc(C)n(-c2cccc(C(F)(F)F)c2)n1)c1cccs1 (centres unmarked) [‘60154]
EC50 (hCB1): 316 nM
Emax (hCB1): 67%
EC50 (hCB2 [4]): 3340 nM
Emax (hCB2 [4]): 21%
Emax (hCB2 [5]): 31%
